SMILES strings stand for the structures.

This experiment addresses Cyclin-dependent kinase 2/cyclin A (Homo sapiens, UniProt P24941). Kind of experiment: Inhibition of CDK2/cyclinA (unknown origin). The class given is protein-complex assay.
Take `CCOc1nc(Nc2ccc(OC)cc2)nc(N)c1C=O`: the IC50 is 1900 nM.

In turn, `Nc1nc(N)c([N+](=O)[O-])c(OCC2CCCCC2)n1` displayed an IC50 of 8300 nM. Compared with the last compound, the IC50 is about 4.4-fold higher.

Regarding `Nc1nc(Nc2ccc(S(N)(=O)=O)cc2)nc(OCC2CCCCC2)c1/C=N/O`, it took 117 nM to reach half-maximal inhibition (IC50). For `COc1ccc(Nc2nc(N)c(/C=N/O)c(OCC3CCCCC3)n2)cc1`, the IC50 was 8300 nM. Compared with the last compound, the IC50 is about 71-fold higher. `CCOc1nc(Nc2ccc(S(N)(=O)=O)cc2)nc(N)c1C=O` showed an IC50 of 49 nM.

`CC[C@@H](C)Oc1nc(Nc2ccc(S(N)(=O)=O)cc2)ncc1C=O` registered an IC50 of 13.1 nM.

In turn, `NC(=O)c1ccc(Nc2ncc(N=O)c(OCC3CCCCC3)n2)cc1` came in with an IC50 of 34 nM. `CC(C)Oc1nc(Nc2ccc(S(N)(=O)=O)cc2)nc(N)c1C=O`: half-maximal inhibition (IC50) was put at 26 nM. Consider `Nc1nc(N)c(-c2cccs2)c(OCC2CCCCC2)n1`, for which the IC50 turned out to be 55000 nM.

Regarding `O=Nc1cnc(Nc2cccc(CO)c2)nc1OCC1CCCCC1`, inhibition was half-maximal at 45 nM (IC50). In turn, `N#CCc1ccc(Nc2nc(N)cc(OCC3CCCCC3)n2)cc1` returned an IC50 of 24000 nM. Compared with the last compound, the IC50 is about 530-fold higher. Compound `Nc1nc(N)c(-c2ccco2)c(OCC2CCCCC2)n1` showed an IC50 of 56300 nM. The compound `N#CCc1cccc(Nc2nc(N)c(N=O)c(OCC3CCCCC3)n2)c1` displayed an IC50 of 33 nM. In the case of `Nc1nc(Nc2ccc(C(=O)O)cc2)nc(OCC2CCCCC2)c1C=O`, the IC50 turned out to be 610 nM. As to `O=Nc1cnc(Nc2ccc(S(=O)(=O)Nc3nccs3)cc2)nc1OCC1CCCCC1`, the 50% inhibitory concentration (IC50) stood at 19 nM. Compared with the last compound, the IC50 is about 32-fold lower. The value for `CCOc1nc(Nc2ccc(S(N)(=O)=O)cc2)nc(N)c1N=O` was 93 nM; that for `N#Cc1c(N)nc(N)nc1OCC1CCCCC1` was 61000 nM; that for `CCN(CC)S(=O)(=O)c1ccc(Nc2ncc(N=O)c(OCC3CCCCC3)n2)cc1` was 86 nM. Compound `CSc1cccc(Nc2nc(N)c(N=O)c(OCC3CCCCC3)n2)c1` registered an IC50 of 400 nM. Compound `O=Nc1cnc(Nc2ccc(S(=O)(=O)NCC3CCCO3)cc2)nc1OCC1CCCCC1` (stereo not drawn) came in with a half-maximal inhibitory concentration (IC50) of 8.1 nM.

`COc1cccc(Nc2ncc(N=O)c(OCC3CCCCC3)n2)c1`: it took 340 nM to reach half-maximal inhibition (IC50). `CCN(CC)C(=O)c1ccc(Nc2nc(N)c(N=O)c(OCC3CCCCC3)n2)cc1` came in with an IC50 of 200 nM. For the compound `O=Nc1cnc(Nc2cccc(Br)c2)nc1OCC1CCCCC1`, the IC50 turned out to be 500 nM. Compound `Brc1cccc(Nc2nccc(OCC3CCCCC3)n2)c1` yielded a 50% inhibitory concentration (IC50) of 26000 nM. The value for `Nc1nc(Nc2ccc(C(=O)O)cc2)nc(OCC2CCCCC2)c1N=O` was 110 nM. `COc1nc(N)nc(N)c1N=O` came in with an IC50 of 79000 nM. `Nc1nc(Nc2ccc(S(N)(=O)=O)cc2)nc(OCC2CCCCC2)c1C=O` returned an IC50 of 49 nM. `COc1ccc(Nc2nc(N)c(C=O)c(OC(C)C)n2)cc1` showed a concentration for half-maximal inhibition (IC50) of 1800 nM.
